Literature values as cited in patent publication US7928052B2, “Enzyme stabilization” (Dow Global Technologies LLC, priority 2004, dated 2011).

In the case of `CC(O)C(=O)O` (centres unmarked) [lactic acid], the “K1, complexation constant B(OH)3+H2L⇄[1:1]−+H3O+” value (H2L is fully protonated lactic acid) is listed as 1.8×10^−3 and the “K1′, complexation constant B(OH)3+HL−⇄[1:1]−+H2O” value (pH 4 to about pH 10, lactic acid having lost a proton) is listed as 9.0 M⁻¹.
